Results taken from patent publication US9580449B2, “Compositions and methods for the production of pyrimidine and pyridine compounds with BTK inhibitory activity” (Merck Patent GmbH, priority 2011, dated 2017).

Target: full-length human BTK (Homo sapiens (Human), UniProt Q06187)
Test: BTK IC50 enzyme assay (microfluidic off-chip mobility shift kinase assay)
Assay type: biochemical
Conditions: incubated for 90 min. at 27 C; read-out: Time Dependent BTK Enzyme Assay IC50
Procedure, shortened: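 Read-out separates phosphorylated peptide product from substrate by charge/mass in a mobility shift format with full-length human BTK.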

Sequence of full-length human BTK (Q06187 whole entry): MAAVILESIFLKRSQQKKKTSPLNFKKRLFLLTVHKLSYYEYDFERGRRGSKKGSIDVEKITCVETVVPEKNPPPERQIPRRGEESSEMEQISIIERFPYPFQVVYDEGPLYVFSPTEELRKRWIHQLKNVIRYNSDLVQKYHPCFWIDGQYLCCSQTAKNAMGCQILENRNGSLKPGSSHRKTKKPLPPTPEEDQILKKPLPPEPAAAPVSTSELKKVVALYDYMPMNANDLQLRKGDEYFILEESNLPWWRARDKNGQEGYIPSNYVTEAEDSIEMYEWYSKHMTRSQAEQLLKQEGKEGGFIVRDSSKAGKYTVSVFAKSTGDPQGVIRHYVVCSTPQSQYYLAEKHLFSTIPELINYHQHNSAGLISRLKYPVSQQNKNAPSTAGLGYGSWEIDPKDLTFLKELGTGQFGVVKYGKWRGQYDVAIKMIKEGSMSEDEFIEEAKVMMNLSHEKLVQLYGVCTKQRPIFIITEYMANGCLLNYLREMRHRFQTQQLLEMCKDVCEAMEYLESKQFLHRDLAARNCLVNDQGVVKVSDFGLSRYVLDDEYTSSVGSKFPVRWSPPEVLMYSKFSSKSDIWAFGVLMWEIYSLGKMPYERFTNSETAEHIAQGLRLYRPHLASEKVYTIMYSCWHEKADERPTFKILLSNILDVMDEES

IC50 [nM]	Structure (SMILES)
< 1000	C=CC(=O)N1CCCC(CNc2ncnc(N)c2-c2ccc(Oc3ccccc3)cc2)C1 (stereo not drawn) [A286, 1-(3-(((6-amino-5-(4-phenoxyphenyl)pyrimidin-4-yl)amino)methyl)piperidin-1-yl)prop-2-en-1-one]
< 1000	CN(C)C/C=C/C(=O)N1CC[C@@H](Nc2ncnc(N)c2-c2ccc(Oc3ccccc3)cc2)C1 [A73, (R,E)-1-(3-((6-amino-5-(4-phenoxyphenyl)pyrimidin-4-yl)amino)pyrrolidin-1-yl)-4-(dimethylamino)but-2-en-1-one]
< 100	Nc1ncnc(Oc2ccc(Oc3ccccc3)cc2)c1-c1cccc(NC(=O)/C=C/CN2CCOCC2)c1 [A274, (E)-N-(3-(4-amino-6-(4-phenoxyphenoxy)pyrimidin-5-yl)phenyl)-4-morpholinobut-2-enamide]
> 1000	CCC(=O)NCc1ccc(-c2cnccc2Oc2ccc(Oc3ccccc3)cc2)cc1 [A324, N-(4-(4-(4-phenoxyphenoxy)pyridin-3-yl)benzyl)propionamide]
> 1000	C=C(C)C(=O)Nc1cccc(-c2cnccc2Oc2ccc(Oc3ccccc3)cc2)c1 [A322, N-(3-(4-(4-phenoxyphenoxy)pyridin-3-yl)phenyl)methacrylamide]
> 1000	C=CC(=O)N[C@H]1CC[C@@H](Nc2ncnc(N)c2-c2ccc(C(=O)Nc3ccccc3)cc2)CC1 [A159, 4-(4-((cis-4-acrylamidocyclohexyl)amino)-6-aminopyrimidin-5-yl)-N-phenylbenzamide]
< 100	C=CC(=O)N1C[C@H](F)C[C@@H](Nc2ncnc(N)c2-c2ccc(Oc3ccccc3)cc2)C1 [A205, 1-((3R,5R)-3-((6-amino-5-(4-phenoxyphenyl)pyrimidin-4-yl)amino)-5-fluoropiperidin-1-yl)prop-2-en-1-one]
< 100	C=CC(=O)Nc1cccc(Oc2ncnc(N)c2-c2cnn(Cc3cccc(C(F)(F)F)c3)c2)c1 [A195, N-(3-((6-amino-5-(1-(3-(trifluoromethyl)benzyl)-1H-pyrazol-4-yl)pyrimidin-4-yl)oxy)phenyl)acrylamide]
< 1000	Nc1ncnc(OC2CC3(C2)CN(C(=O)/C=C/CN2CC(F)(F)C2)C3)c1-c1ccc(Oc2ccccc2)cc1 [A223, (E)-1-(6-((6-amino-5-(4-phenoxyphenyl)pyrimidin-4-yl)oxy)-2-azaspiro[3.3]heptan-2-yl)-4-(3,3-difluoroazetidin-1-yl)but-2-en-1-one]
> 1000	C=CC(=O)NC1(CNc2ncnc(N)c2-c2ccc(Oc3ccccc3)cc2)CCCC1 [A20, N-(1-(((6-amino-5-(4-phenoxyphenyl)pyrimidin-4-yl)amino)methyl)cyclopentyl)acrylamide]
< 1000	C=CC(=O)N1CCC=C(c2cnccc2Oc2ccc(Oc3ccccc3)cc2)C1 [A288, 1-(4′-(4-phenoxyphenoxy)-5,6-dihydro-[3,3′-bipyridin]-1(2H)-yl)prop-2-en-1-one]
> 1000	Nc1ncnc(NCC2(F)CCN(C(=O)CCN3CCCCC3)CC2)c1-c1ccc(Oc2ccccc2)cc1 [A235, 1-(4-(((6-amino-5-(4-phenoxyphenyl)pyrimidin-4-yl)amino)methyl)-4-fluoropiperidin-1-yl)-3-(piperidin-1-yl)propan-1-one]
< 100	C=CC(=O)N1CCO[C@@H](COc2ncnc(N)c2-c2ccc(Oc3ccccc3)cc2)C1 [A66, (R)-1-(2-(((6-amino-5-(4-phenoxyphenyl)pyrimidin-4-yl)oxy)methyl)morpholino)prop-2-en-1-one]
> 1000	C=CC(=O)N1CCC(Nc2ncnc(N)c2-c2ccc(Oc3ccccc3)cc2)CC1 [A299, 1-(4-((6-amino-5-(4-phenoxyphenyl)pyrimidin-4-yl)amino)piperidin-1-yl)prop-2-en-1-one]
> 1000	C=CC(=O)NCC1CCN(c2ncnc(N)c2-c2ccc(Oc3ccccc3)cc2)CC1 [A7, N-((1-(6-amino-5-(4-phenoxyphenyl)pyrimidin-4-yl)piperidin-4-yl)methyl)acrylamide]
< 1000	CN(C)C/C=C/C(=O)N[C@H]1C[C@H](Nc2ncnc(N)c2-c2ccc(Oc3ccccc3)cc2)C1 [A228, (E)-N-(1,3-trans-3-((6-amino-5-(4-phenoxyphenyl)pyrimidin-4-yl)amino)cyclobutyl)-4-(dimethylamino)but-2-enamide]
< 1000	C/C=C\C(=O)N1CCC(COc2ncnc(N)c2-c2ccc(Oc3ccccc3)cc2)CC1 [A43, (Z)-1-(4-(((6-amino-5-(4-phenoxyphenyl)pyrimidin-4-yl)oxy)methyl)piperidin-1-yl)but-2-en-1-one]
< 100	C=CC(=O)N1CCC(CNc2ncncc2-c2ccc(Oc3ccccc3)cc2)CC1 [A334, 1-(4-(((5-(4-phenoxyphenyl)pyrimidin-4-yl)amino)methyl)piperidin-1-yl)prop-2-en-1-one]
< 100	C=CC(=O)N1CCC=C(c2c(N)ncnc2Oc2ccc(Oc3ccccc3)cc2)C1 [A279, 1-(3-(4-amino-6-(4-phenoxyphenoxy)pyrimidin-5-yl)-5,6-dihydropyridin-1(2H)-yl)prop-2-en-1-one]
< 100	C=CC(=O)N1CCC(CNc2ncnc(N)c2-c2ccc(Oc3ccccc3)cc2)(C(=O)O)CC1 [A216, 1-acryloyl-4-(((6-amino-5-(4-phenoxyphenyl)pyrimidin-4-yl)amino)methyl)piperidine-4-carboxylic acid]

IC50 [nM]	Structure (SMILES)
> 1000	CCC(=O)Nc1cccc(-c2c(N)ncnc2Oc2ccc(Oc3ccccc3)cc2)c1 [A325, N-(3-(4-amino-6-(4-phenoxyphenoxy)pyrimidin-5-yl)phenyl)propionamide]
< 100	Nc1ncnc(OC2CC3(C2)CN(C(=O)/C=C/CN2CC(F)C2)C3)c1-c1ccc(Oc2ccccc2)cc1 [A222, (E)-1-(6-((6-amino-5-(4-phenoxyphenyl)pyrimidin-4-yl)oxy)-2-azaspiro[3.3]heptan-2-yl)-4-(3-fluoroazetidin-1-yl)but-2-en-1-one]
< 1000	Nc1ncnc(NCC2CCN(C(=O)C3=CCC3)CC2)c1-c1ccc(Oc2ccccc2)cc1 [A42, (4-(((6-amino-5-(4-phenoxyphenyl)pyrimidin-4-yl)amino)methyl)piperidin-1-yl)(cyclobut-1-en-1-yl)methanone]
< 100	C=CC(=O)NC12CCC(Nc3ncnc(N)c3-c3ccc(Oc4ccccc4)cc3)(C1)C2 [A177, N-(4-((6-amino-5-(4-phenoxyphenyl)pyrimidin-4-yl)amino)bicyclo[2.1.1]hexan-1-yl)acrylamide]
< 1000	C=CC(=O)Nc1cccc(Oc2ncnc(N)c2-c2ccc(OC(C)C)cc2)c1 [A289, N-(3-((6-amino-5-(4-isopropoxyphenyl)pyrimidin-4-yl)oxy)phenyl)acrylamide]
> 1000	C=CC(=O)N1CCC(CN(C)c2nc(C)nc(N)c2-c2ccc(Oc3ccccc3)cc2)CC1 [A44, 1-(4-(((6-amino-2-methyl-5-(4-phenoxyphenyl)pyrimidin-4-yl)(methyl)amino)methyl)piperidin-1-yl)prop-2-en-1-one]
< 100	C#CC(=O)N1CC2(CC(Oc3ncnc(N)c3-c3cnn(Cc4ccccc4)c3)C2)C1 [A112, 1-(6-((6-amino-5-(1-benzyl-1H-pyrazol-4-yl)pyrimidin-4-yl)oxy)-2-azaspiro[3.3]heptan-2-yl)prop-2-yn-1-one]
< 100	CCC(=O)Nc1cccc(Oc2ncnc(N)c2-c2ccc(OCc3ccccc3)cc2)c1 [A346, N-{3-[6-Amino-5-(4-benzyloxy-phenyl)-pyrimidin-4-yloxy]-phenyl}-propionamide]
< 100	C=CC(=O)Nc1cccc(Oc2nc(N)ncc2-c2ccc(Oc3ccccc3)cc2)c1 [A271, N-(3-((2-amino-5-(4-phenoxyphenyl)pyrimidin-4-yl)oxy)phenyl)acrylamide]
< 100	CN(C)C/C=C/C(=O)N1CCC(F)(CNc2ncnc(N)c2-c2ccc(Oc3ccccc3)cc2)CC1 [A227, (E)-1-(4-(((6-amino-5-(4-phenoxyphenyl)pyrimidin-4-yl)amino)methyl)-4-fluoropiperidin-1-yl)-4-(dimethylamino)but-2-en-1-one]
< 1000	C=CC(=O)N1CC[C@@H](COc2ncnc(N)c2-c2cnn(Cc3ccccc3)c2)C1 [A196, (R)-1-(3-(((6-amino-5-(1-benzyl-1H-pyrazol-4-yl)pyrimidin-4-yl)oxy)methyl)pyrrolidin-1-yl)prop-2-en-1-one]
< 100	C=CC(=O)N1CC[C@@H](CNc2ncnc(N)c2-c2ccc(Oc3cccc(C(F)(F)F)c3)cc2)[C@H](O)C1 [A170, 1-((3S,4S)-4-(((6-amino-5-(4-(3-(trifluoromethyl)phenoxy)phenyl)pyrimidin-4-yl)amino)methyl)-3-hydroxypiperidin-1-yl)prop-2-en-1-one]
< 100	Nc1ncnc(Oc2cccc(NC(=O)CCl)c2)c1-c1ccc(OCc2cccc(F)c2)cc1 [A345, N-(3-{6-Amino-5-[4-(3-fluoro-benzyloxy)-phenyl]-pyrimidin-4-yloxy}-phenyl)-2-chloro-acetamide]
< 1000	C=CC(=O)NCCNc1ncnc(N)c1-c1ccc(Oc2ccccc2)cc1 [A18, N-(2-((6-amino-5-(4-phenoxyphenyl)pyrimidin-4-yl)amino)ethyl)acrylamide]
< 1000	CN(C)C/C=C/C(=O)N1CC[C@H](CNc2ncnc(N)c2-c2ccc(Oc3ccccc3)cc2)C1 [A62, (R,E)-1-(3-(((6-amino-5-(4-phenoxyphenyl)pyrimidin-4-yl)amino)methyl)pyrrolidin-1-yl)-4-(dimethylamino)but-2-en-1-one]
< 1000	C=CC(=O)Nc1cccc(Oc2ccnc(N)c2-c2ccc(OCc3ccccc3)cc2)c1 [A149, N-(3-((2-amino-3-(4-(benzyloxy)phenyl)pyridin-4-yl)oxy)phenyl)acrylamide]
< 100	C=CC(=O)Nc1cccc(Oc2ncnc(N)c2-c2ccc(Oc3ccccc3F)nc2)c1 [A165, N-(3-((6-amino-5-(6-(2-fluorophenoxy)pyridin-3-yl)pyrimidin-4-yl)oxy)phenyl)acrylamide]
< 100	C=CC(=O)Nc1cccc(Oc2ncnc(N)c2-c2cnn(Cc3cccc(C)c3)c2)c1 [A190, N-(3-((6-amino-5-(1-(3-methylbenzyl)-1H-pyrazol-4-yl)pyrimidin-4-yl)oxy)phenyl)acrylamide]
> 1000	Nc1ccc(Oc2ncnc(N)c2-c2ccc(Oc3ccccc3)cc2)cc1 [A303, 6-(4-aminophenoxy)-5-(4-phenoxyphenyl)pyrimidin-4-amine]
